Assay results as given in US11981686B2, “Urea compound having substituent” (DAIICHI SANKYO COMPANY, LIMITED, priority 2019, dated 2024).

Target: SIRT6 enzyme (Homo sapiens, UniProt Q8N6T7)
Experiment: Measurement of deacetylation activity (SIRT6, AlphaLISA, H3K9(Ac) peptide)
Format: biochemical
Details: SIRT6 25 ng/mL, H3K9(Ac) biotin peptide 2 nM, NAD 10 μM, room temperature 30 minutes, duplicate
Procedure: The reaction was performed in duplicate using a white 384-well plate (3824, Corning or 6008350, PerkinElmer) at a final reaction liquid volume of 20.1 μL. As a control for calculating the enzyme activity, the enzyme-added (DMSO (+)) and enzyme-free (DMSO (−)) wells were set at n=8. Test substances (examples of final concentrations: 0.046, 0.14, 0.41, 1.2, 3.7, 11, 33, and 100 μM) at a concentration of 100 times or 0.1 μL of DMSO was dispensed into the plate and 5 μL of SIRT6 enzyme (prepared by Daiichi Sankyo RD Novare Co., Ltd., final concentration: 25 ng/mL) diluted with an assay buffer (10 mM Tris-HCl pH of 8.0, 0.1% BSA, 0.01% Tween 20, 1 mM DTT, 12.5% Glycerol) was added thereto. The enzymatic reaction was started by adding 5 μL of a mixed solution [Lys(Ac)9]-Histone H3 (1-21)-NH2, H3K9 (Ac), biotin-labeled, amide (AnaSpec, AS-64190, final concentration: 2 nM) and β-nicotinamide adenine dinucleotide (Sigma-Aldrich, N8285-15VL, final concentration: 10 μM), and the reaction was performed at room temperature for 30 minutes. 10 μL of a mixed solution of nicotinamide (Sigma-Aldrich, 72340-100G, final concentration: 100 mM) prepared with AlphaLISA Epigenetics Buffer (PerkinElmer, AL008C), AlphaLISA Anti-unmodified Histone H3 Lysine 9/Lysine 27 (H3K9/K27) Acceptor Beads (PerkinElmer, AL138, final concentration: 10 μg/mL), and AlphaScreen Streptavidin Donor beads (PerkinElmer, 6760002, final concentration: 5 μg/mL) was added thereto, the reaction was performed at room temperature for 60 minutes and then stopped, and acetylation was detected. The emission intensity was measured by EnVision (PerkinElmer).
The relative enzyme activity (%) of the test substance was calculated by the following equation. Relative enzyme activity (%)=[(emission intensity of test substance-added well−emission intensity of DMSO (−) well)/(emission intensity of DMSO (+) well−emission intensity of DMSO (−) well)]×100
The EC150 (the concentration of the compound showing a relative enzyme activity of 150%) of the test substance was calculated based on Sigmoidal dose-response (variable slope) of GraphPad Prism (GraphPad Software) using the value of the relative enzyme activity (%) at each concentration, and the results are listed in Tables 1-1 to 1-5.

SIRT6 enzyme, sequence (Q8N6T7 whole entry, species assumed): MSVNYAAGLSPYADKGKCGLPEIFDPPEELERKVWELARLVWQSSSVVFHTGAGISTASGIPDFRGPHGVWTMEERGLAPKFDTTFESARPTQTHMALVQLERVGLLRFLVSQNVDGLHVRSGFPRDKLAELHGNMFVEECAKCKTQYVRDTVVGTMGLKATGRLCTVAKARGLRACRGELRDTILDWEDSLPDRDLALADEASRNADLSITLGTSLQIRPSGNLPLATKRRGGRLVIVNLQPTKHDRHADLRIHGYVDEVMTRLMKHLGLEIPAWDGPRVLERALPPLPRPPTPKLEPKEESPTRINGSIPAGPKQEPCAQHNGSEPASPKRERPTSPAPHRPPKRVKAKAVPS

Question: For `CC(=O)N1CC(NC(=O)Nc2nc3c(s2)[C@@H]2COC[C@H](C3)N2c2ncc(-c3cccc(OC(F)F)n3)o2)C1` [Example 183, N-(1-acetylazetidin-3-yl)-N′-[(4S,8S)-10-{5-[6-(difluoromethoxy)pyridin-2-yl]-1,3-oxazol-2-yl}-4,7,8,9-tetrahydro-5H-4,8-epiminooxocino[5,4-d][1,3]thiazol-2-yl]urea], which “EC150 (the concentration of the compound showing a relative enzyme activity of 150%)” value is on record?
Answer: Its value is 0.24 μm.

Question: With `O=C(Nc1nc2c(s1)[C@@H]1COC[C@H](C2)N1c1ncc(-c2cccc(OC(F)F)n2)o1)NC1(CO)CC1` [Example 181, N-[(4S,8S)-10-{5-[6-(difluoromethoxy)pyridin-2-yl]-1,3-oxazol-2-yl}-4,7,8,9-tetrahydro-5H-4,8-epiminooxocino[5,4-d][1,3]thiazol-2-yl]-N′-[1-(hydroxymethyl)cyclopropyl]urea] as the molecule, how does the “EC150 (the concentration of the compound showing a relative enzyme activity of 150%)” value read?
Answer: The value was 0.53 μm.

Question: Which “EC150 (the concentration of the compound showing a relative enzyme activity of 150%)” value does the source give for `C[C@H]1NC(=O)N(c2nc3c(s2)[C@@H]2COC[C@H](C3)N2c2nc(-c3ccc(F)cc3)no2)C1=O` [Example 20, (5R)-3-{(4S,8S)-10-[3-(4-fluorophenyl)-1,2,4-oxadiazol-5-yl]-4,7,8,9-tetrahydro-5H-4,8-epiminooxocino[5,4-d][1,3]thiazol-2-yl}-5-methylimidazolidine-2,4-dione] here?
Answer: Its value is 2.6 μm.

Question: With `O=C(NCC1(O)CC1)Nc1nc2c(s1)CN(c1nc(C3CCC(F)(F)CC3)no1)CC2` [Example 104, N-{5-[3-(4,4-difluorocyclohexyl)-1,2,4-oxadiazol-5-yl]-4,5,6,7-tetrahydro[1,3]thiazolo[5,4-c]pyridin-2-yl}-N′-[(1-hydroxycyclopropyl)methyl]urea] as the molecule, how does the “EC150 (the concentration of the compound showing a relative enzyme activity of 150%)” value read?
Answer: Its value is 1.6 μm.

Question: How did the “EC150 (the concentration of the compound showing a relative enzyme activity of 150%)” value turn out when `CNC(=O)Nc1nc2c(s1)C1CN(C(=O)OC)CC(C2)N1c1cc(-c2ccc(F)cc2)on1` (centres unmarked) [Example 64, Methyl 10-[5-(4-fluorophenyl)-1,2-oxazol-3-yl]-2-[(methylcarbamoyl)amino]-4,7,8,9-tetrahydro-4,8-epimino[1,3]thiazolo[5,4-d]azocine-6(5H)-carboxylate] was run?
Answer: The value was 0.49 μm.

Question: How did the “EC150 (the concentration of the compound showing a relative enzyme activity of 150%)” value turn out when `CNC(=O)Nc1nc2c(s1)C1CN(C(C)=O)CC(C2)N1c1ncc(-c2cccc(OC)n2)o1` (centres unmarked) [Example 126, N-{6-acetyl-10-[5-(6-methoxypyridin-2-yl)-1,3-oxazol-2-yl]-4,5,6,7,8,9-hexahydro-4,8-epimino[1,3]thiazolo[5,4-d]azocin-2-yl}-N′-methylurea] was run?
Answer: Its value is 1 μm.

Question: With `O=C(Nc1nc2c(s1)[C@@H]1COC[C@H](C2)N1c1cc(C2CCC(F)(F)CC2)on1)N[C@@H]1CCOC1` [Example 157, N-{(4S,8S)-10-[5-(4,4-difluorocyclohexyl)-1,2-oxazol-3-yl]-4,7,8,9-tetrahydro-5H-4,8-epiminooxocino[5,4-d][1,3]thiazol-2-yl}-N′-[(3R)-oxolan-3-yl]urea] as the molecule, how does the “EC150 (the concentration of the compound showing a relative enzyme activity of 150%)” value read?
Answer: Its value is 4.6 μm.

Question: With `CNC(=O)Nc1nc2c(s1)[C@@H]1COC[C@H](C2)N1c1nc(-c2ccc(F)cc2)no1` (single isomer, unassigned) [Example 13] as the molecule, how does the “EC150 (the concentration of the compound showing a relative enzyme activity of 150%)” value read?
Answer: Its value is 1.3 μm.

Question: With `CCc1cccc(-c2nnc(N3[C@@H]4COC[C@H]3c3sc(NC(=O)NC)nc3C4)o2)c1` [Example 118, N-{(4S,8S)-10-[5-(3-ethylphenyl)-1,3,4-oxadiazol-2-yl]-4,7,8,9-tetrahydro-5H-4,8-epiminooxocino[5,4-d][1,3]thiazol-2-yl}-N′-methylurea] as the molecule, how does the “EC150 (the concentration of the compound showing a relative enzyme activity of 150%)” value read?
Answer: Its value is 1.8 μm.

Question: `CC(C)(O)CNC(=O)Nc1nc2c(s1)CN(c1nc(C3CCC(F)(F)C3)no1)CC2` (centres unmarked) [Example 94, N-{5-[3-(3,3-difluorocyclopentyl)-1,2,4-oxadiazol-5-yl]-4,5,6,7-tetrahydro[1,3]thiazolo[5,4-c]pyridin-2-yl}-N′-(2-hydroxy-2-methylpropyl)urea] was tested. Which “EC150 (the concentration of the compound showing a relative enzyme activity of 150%)” value did it give?
Answer: Its value is 1.6 μm.

Question: `COc1ccc2oc(N3[C@@H]4COC[C@H]3c3sc(NC(=O)NC(C)(C)CO)nc3C4)nc2c1` [Example 58, N-(1-hydroxy-2-methylpropan-2-yl)-N′-[(4S,8S)-10-(5-methoxy-1,3-benzoxazol-2-yl)-4,7,8,9-tetrahydro-5H-4,8-epiminooxocino[5,4-d][1,3]thiazol-2-yl]urea] was tested. Which “EC150 (the concentration of the compound showing a relative enzyme activity of 150%)” value did it give?
Answer: The value was 2.4 μm.

Question: Which “EC150 (the concentration of the compound showing a relative enzyme activity of 150%)” value does the source give for `O=C(Nc1nc2c(s1)CN(c1nc(C3CCC(F)(F)CC3)no1)CC2)N[C@H]1CC[C@H](O)CC1` [Example 26, N-{5-[3-(4,4-difluorocyclohexyl)-1,2,4-oxadiazol-5-yl]-4,5,6,7-tetrahydro[1,3]thiazolo[5,4-c]pyridin-2-yl}-N′-[(1r,4r)-4-hydroxycyclohexyl]urea] here?
Answer: Its value is 0.81 μm.

Question: For `CC(C)(O)CNC(=O)Nc1nc2c(s1)CN(c1nc3cc(S(C)(=O)=O)ccc3o1)C(C)(C)C2` [Example 75, N-(2-hydroxy-2-methylpropyl)-N′-{5-[5-(methanesulfonyl)-1,3-benzoxazol-2-yl]-6,6-dimethyl-4,5,6,7-tetrahydro[1,3]thiazolo[5,4-c]pyridin-2-yl}urea], which “EC150 (the concentration of the compound showing a relative enzyme activity of 150%)” value is on record?
Answer: Its value is 0.94 μm.

Question: `[2H]C([2H])([2H])Oc1ccc2oc(N3[C@@H]4COC[C@H]3c3sc(NC(=O)N[C@H](C)CO)nc3C4)nc2c1` [Example 76, N-[(2R)-1-hydroxypropan-2-yl]-N′-[(4S,8S)-10-{5-[(^2H3)methyloxy]-1,3-benzoxazol-2-yl}-4,7,8,9-tetrahydro-5H-4,8-epiminooxocino[5,4-d][1,3]thiazol-2-yl]urea] was tested. Which “EC150 (the concentration of the compound showing a relative enzyme activity of 150%)” value did it give?
Answer: Its value is 1.3 μm.

Question: With `CC(C)(O)CNC(=O)Nc1nc2c(s1)[C@@H]1COC[C@H](C2)N1c1ncc(-c2cccc(OC(F)F)c2)o1` [Example 172, N-[(4S,8S)-10-{5-[3-(difluoromethoxy)phenyl]-1,3-oxazol-2-yl}-4,7,8,9-tetrahydro-5H-4,8-epiminooxocino[5,4-d][1,3]thiazol-2-yl]-N′-(2-hydroxy-2-methylpropyl)urea] as the molecule, how does the “EC150 (the concentration of the compound showing a relative enzyme activity of 150%)” value read?
Answer: Its value is 0.83 μm.

Question: Which “EC150 (the concentration of the compound showing a relative enzyme activity of 150%)” value does the source give for `O=C(Nc1nc2c(s1)[C@@H]1COC[C@H](C2)N1c1cc(-c2ccc(F)cc2)on1)NC1CCS(=O)(=O)CC1` [Example 165, N-(1,1-dioxo-1λ^6-thian-4-yl)-N′-{(4S,8S)-10-[5-(4-fluorophenyl)-1,2-oxazol-3-yl]-4,7,8,9-tetrahydro-5H-4,8-epiminooxocino[5,4-d][1,3]thiazol-2-yl}urea] here?
Answer: The value was 0.41 μm.

Question: Which “EC150 (the concentration of the compound showing a relative enzyme activity of 150%)” value does the source give for `CCOc1ccc2oc(N3[C@@H]4COC[C@H]3c3sc(NC(=O)N[C@H](C)CO)nc3C4)nc2c1` [Example 52, N-[(4S,8S)-10-(5-ethoxy-1,3-benzoxazol-2-yl)-4,7,8,9-tetrahydro-5H-4,8-epiminooxocino[5,4-d][1,3]thiazol-2-yl]-N′-[(2R)-1-hydroxypropan-2-yl]urea] here?
Answer: Its value is 1.9 μm.
